From patent US20220409608A1, “DIMERIC NAPHTHALIMIDE FORMULATIONS” (ALUCENT BIOMEDICAL, INC., priority 2019, published 2022)

Key:
Type in all cases: physicochemical
[1] = Combination of exemplary composition and paclitaxel injection solution, UPLC; details: for Stability after being combined in the same composition: seven hours after combining Compound of Formula (I) formulation and paclitaxel; for Stability after being combined in the same composition / Compound of Formula (I) (HPLC area-%) / Total impurities (HPLC area-%): room temperature; for Compound of Formula (I) (HPLC area-%) / Total impurities (HPLC area-%): equal volumes of formulation and paclitaxel injection solution (6 mg/mL)
Description: (§1) The purity of a composition was analyzed by UPLC on a 2.1×100 mm C18 column with 1.7 μm packing. The analytical method was a 7 minute gradient at 30° C. and a flowrate of 0.61 mL/min consisting of acetonitrile, water, and trifluoracetic acid. Absorption was measured at 210 nm and 440 nm.
Equal volumes of a formulation from Example 1 and paclitaxel injection solution (6 mg/mL; used as received from manufacturer) were combined in an amber scintillation vial and stored at room temperature. The resulting mixture was a clear yellow solution. An aliquot was obtained, diluted 1:10 with 0.1% aqueous TFA and analyzed by UPLC as described herein. Another aliquot was obtained, 7 hours after preparation of the mixture, and similarly diluted and analyzed.

[2] = Combination of exemplary composition and radiographic contrast agent, UPLC; details: for Increase in the amount of impurities of Compound of Formula (I), HPLC chromatograms: initial and 24-hour timepoints
Description: as §1
Equal volumes of a formulation from Example 1 and radiographic contrast agent (Omnipaque or Isovue), as received from the manufacturer, were drawn into separate syringes. The two syringes were connected to an indeflator by a three-way joint/stopcock. The indeflator was evacuated and the mixtures from both syringes were transferred into the indeflator. The indeflator was then inverted six times to ensure complete mixing of the mixtures. The resulting mixture was a yellow/orange translucent mixture, stored in an amber scintillation vial at room temperature, and analyzed by UPLC upon storage and after 24 hours.

[3] = Stability of formulations at 40° C. at various pH values (impurities by UPLC)
Description: as §1
To determine the stability of the formulations described herein, the amount of impurities was measured. A formulation was added to a 10 mL amber vial and stored at 40° C. in a constant temperature chamber. At the desired time point(s), the formulation was analyzed by UPLC and the pH was measured. No change in physical appearance was observed.

[4] = equal volumes of formulation and Isovue, room temperature, t = 0 hours
[5] = equal volumes of formulation and Isovue, room temperature, t = 24 hours
[6] = equal volumes of formulation and Omnipaque, room temperature, t = 0 hours
[7] = equal volumes of formulation and Omnipaque, room temperature, t = 24 hours

CC(=O)O[C@H]1C(=O)[C@@]2(C)[C@H]([C@H](OC(=O)c3ccccc3)[C@]3(O)C[C@H](OC(=O)[C@H](O)[C@@H](NC(=O)c4ccccc4)c4ccccc4)C(C)=C1C3(C)C)[C@]1(OC(C)=O)CO[C@@H]1C[C@@H]2O [paclitaxel, reference compound]
Increase in the amount of impurities of paclitaxel, HPLC chromatograms ([1]; mixture of Compound of Formula (I) and paclitaxel, 1- and 7-hour time points, FIG. 8): no increase
Stability after being combined in the same composition [1]: stable

NCCOCCOCCNc1ccc2c3c(cccc13)C(=O)N(CCOCCOCCN1C(=O)c3cccc4c(NCCOCCOCCN)ccc(c34)C1=O)C2=O [Compound of Formula (I), 2,2′-((ethane-1,2-diylbis(oxy))bis(ethane-2,1-diyl))bis(6-((2-(2-(2-aminoethoxy)ethoxy)ethyl)amino)-1H-benzo[de]isoquinoline-1,3(2H)-dione)]
Stability when combined with a radiographic contrast agent ([2]; after 24 hours, room temperature): stable
Compound of Formula (I) (HPLC area-%) [2, 4]: 98.98 HPLC area-%
Total impurities (HPLC area-%) [2, 4]: 1.02 HPLC area-%
Compound of Formula (I) (HPLC area-%) [2, 5]: 98.97 HPLC area-%
Total impurities (HPLC area-%) [2, 5]: 1.03 HPLC area-%
Compound of Formula (I) (HPLC area-%) [2, 6]: 98.98 HPLC area-%
Total impurities (HPLC area-%) [2, 6]: 1.02 HPLC area-%
Compound of Formula (I) (HPLC area-%) [2, 7]: 98.95 HPLC area-%
Total impurities (HPLC area-%) [2, 7]: 1.05 HPLC area-%
Increase in the amount of impurities of Compound of Formula (I), HPLC chromatograms ([2]; mixture with Isovue, FIG. 5): no increase
Increase in the amount of impurities of Compound of Formula (I), HPLC chromatograms ([2]; mixture with Omnipaque, FIG. 6): no increase
Increase in impurity concentration ([3]; composition at a pH ranging from 5 to 7): minimal
Degradation in compositions ([3]; compositions having a pH of less than 5 or greater than 7): degrade appreciably
Compound of Formula (I) (HPLC area-%) ([1]; 0 hours): 98.9 HPLC area-%
Total impurities (HPLC area-%) ([1]; 0 hours): 1.1 HPLC area-%
Compound of Formula (I) (HPLC area-%) ([1]; 1 hour): 98.9 HPLC area-%
Total impurities (HPLC area-%) ([1]; 1 hour): 1.1 HPLC area-%
Compound of Formula (I) (HPLC area-%) ([1]; 4 hours): 98.9 HPLC area-%
Total impurities (HPLC area-%) ([1]; 4 hours): 1.1 HPLC area-%
Compound of Formula (I) (HPLC area-%) ([1]; 7 hours): 98.9 HPLC area-%
Total impurities (HPLC area-%) ([1]; 7 hours): 1.1 HPLC area-%
Increase in the amount of impurities of Compound of Formula (I), HPLC chromatograms ([1]; mixture with paclitaxel, 1- and 7-hour time points, FIG. 7): no increase
Stability after being combined in the same composition [1]: stable
